Laboratory results as given in US9067891B2, “1,4-disubstituted 3-cyano-pyridone derivatives and their use as positive allosteric modulators of mGluR2-receptors” (JANSSEN PHARMACEUTICALS, INC., priority 2007, dated 2015).
Values joined by “and” are separate entries in the source; they are usually repeats but may differ in a detail not shown here. Equal values may be shown once.

What was measured:
human mGluR2 receptor = target: T1, human mGluR2 receptor (Homo sapiens, UniProt Q14416); assay: [35S]GTPγS binding assay (GTPγS-PAM), membranes from CHO cells transfected with human mGluR2; assay type: biochemical; details: positive allosteric modulation in presence of glutamate at predetermined EC25 concentration, averages of duplicate values of 11-concentration response curves, pEC50 = -logEC50, error about 0.3 log-units; for EC50: read-out: GTPgS - hR2 PAM pEC50 (converted)
T1 construct: expressed in transfected cells; host or cells: CHO cells (membrane preparation)
Excerpt: The compounds provided in the present invention are positive allosteric modulators of mGluR2. These compounds appear to potentiate glutamate responses by binding to an allosteric site other than the glutamate binding site. The response of mGluR2 to a concentration of glutamate is increased when compounds of formula (I) are present. Compounds of formula (I) are expected to have their effect substantially at mGluR2 by virtue of their ability to enhance the function of the receptor. The behaviour of positive allosteric modulators tested at mGluR2 using the [^35S]GTPγS binding assay method described below and which is suitable for the identification of such compounds, and more particularly the compounds according to formula (I), are shown in Table 3.
[^35S]GTPγS Binding Assay
The [^35S]GTPγS binding assay is a functional membrane-based assay used to study G-protein coupled receptor (GPCR) function whereby incorporation of a non-hydrolysable form of GTP, [^35S]GTPγS (guanosine 5′-triphosphate, labelled with […] ^35S), is measured. The G-protein […] catalyzes the exchange of guanosine 5′-diphosphate (GDP) by guanosine triphosphate (GTP) and on activation of the GPCR by an agonist, [^35S]GTPγS, becomes incorporated and cannot be cleaved to continue the exchange cycle (Harper (1998) Current Protocols in Pharmacology 2.6.1-10, John Wiley & Sons, Inc.). […] Here we describe the use of the [^35S]GTPγS binding assay using membranes from cells transfected with the human mGluR2 receptor and adapted from Sehaffhauser et al ((2003) Molecular Pharmacology 4:798-810) for the detection of the positive allosteric modulation (PAM) properties of the compounds of this invention.
CHO-cells were cultured to pre-confluence and stimulated with 5 mM butyrate for 24 hours, prior to washing in PBS, and then collection by scraping in homogenisation buffer (50 mM Tris-HCl buffer, pH 7.4, 4° C.). Cell lysates were homogenized briefly (15 s) using an ultra-turrax homogenizer. The homogenate was centrifuged at 23 500×g for 10 minutes and the supernatant discarded. The pellet was resuspended in 5 mM Tris-HCl, pH 7.4 and centrifuged again (30 000×g, 20 min, 4° C.). The final pellet was resuspended in 50 mM HEPES, pH 7.4 and stored at −80° C. in appropriate aliquots before use. Protein concentration was determined by the Bradford method (Bio-Rad, USA) with bovine serum albumin as standard.
Measurement of mGluR2 positive allosteric modulatory activity of test compounds in membranes containing human mGluR2 was performed using frozen membranes that were thawed and briefly homogenised prior to pre-incubation in 96-well microplates (15 μg/assay well, 30 minutes, 30° C.) in assay buffer (50 mM HEPES pH 7.4, 100 mM NaCl, 3 mM MgCl2, 50 μM GDP, 10 μg/ml saponin,) with increasing concentrations of positive allosteric modulator (from 0.3 nM to 50 μM) and either a minimal pre-determined concentration of glutamate (PAM assay), or no added glutamate. For the PAM assay, membranes were pre-incubated with glutamate at EC25 concentration, i.e. a concentration that gives 25% of the maximal response glutamate, and is in accordance to published data (Pin et al. (1999) Eur. J. Pharmacol. 375:277-294). After addition of [^35S]GTPγS (0.1 nM, f.c.) to achieve a total reaction volume of 200 μl, microplates were shaken briefly and further incubated to allow [^35S]GTPγS incorporation on activation (30 minutes, 30° C.). The reaction was stopped by rapid vacuum filtration over glass-fibre filter plates (Unifilter 96-well GF/B filter plates, Perkin-Elmer, Downers Grove, USA) microplate using a 96-well plate cell harvester (Filtermate, Perkin-Elmer, USA), and then by washing three times with 300 μl of ice-cold wash buffer (Na2PO4.2H20 10 mM, NaH2PO4.H20 10 mM, pH=7.4). […]

T1 sequence (Q14416 19-872): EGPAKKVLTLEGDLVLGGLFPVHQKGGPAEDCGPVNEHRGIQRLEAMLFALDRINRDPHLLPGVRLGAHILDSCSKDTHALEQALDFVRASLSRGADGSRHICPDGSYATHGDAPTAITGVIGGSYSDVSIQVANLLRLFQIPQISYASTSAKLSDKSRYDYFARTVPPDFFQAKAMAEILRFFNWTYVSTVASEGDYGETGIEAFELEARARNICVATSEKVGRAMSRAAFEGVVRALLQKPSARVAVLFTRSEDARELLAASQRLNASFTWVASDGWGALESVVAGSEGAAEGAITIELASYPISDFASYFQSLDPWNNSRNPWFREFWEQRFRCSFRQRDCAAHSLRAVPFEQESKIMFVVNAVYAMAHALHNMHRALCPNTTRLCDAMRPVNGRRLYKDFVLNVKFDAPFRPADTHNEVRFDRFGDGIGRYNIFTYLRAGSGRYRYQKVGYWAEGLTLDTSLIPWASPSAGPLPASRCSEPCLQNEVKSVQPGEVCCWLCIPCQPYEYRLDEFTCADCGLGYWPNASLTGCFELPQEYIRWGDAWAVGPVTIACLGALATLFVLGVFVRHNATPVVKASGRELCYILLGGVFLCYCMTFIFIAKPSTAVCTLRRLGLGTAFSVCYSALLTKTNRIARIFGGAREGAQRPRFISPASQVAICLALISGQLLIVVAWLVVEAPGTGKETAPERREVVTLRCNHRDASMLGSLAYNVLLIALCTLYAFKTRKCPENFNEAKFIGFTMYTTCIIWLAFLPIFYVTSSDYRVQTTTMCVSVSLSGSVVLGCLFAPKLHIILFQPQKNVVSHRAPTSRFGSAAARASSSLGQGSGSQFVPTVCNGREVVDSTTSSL

SMILES	EC50 (human mGluR2 receptor) [nM]	melting point	GTPgS - hR2 PAM pEC50 (human mGluR2 receptor)
Cc1cc(C)nc(Oc2ccc(-c3ccn(CC4CC4)c(=O)c3C#N)c(F)c2)c1 [Compound 1, 1-Cyclopropylmethyl-4-[4-(4,6-dimethyl-pyridin-2-yloxy)-2-fluoro-phenyl]-2-oxo-1,2-dihydro-pyridine-3-carbonitrile]	813	137 °C	
CCCCn1ccc(-c2ccc(Oc3ccc(C)nc3C)c(F)c2)c(C#N)c1=O [Compound 2, 1-Butyl-4-[4-(2,6-dimethyl-pyridin-3-yloxy)-3-fluoro-phenyl]-2-oxo-1,2-dihydro-pyridine-3-carbonitrile]	138	156.4 °C	
Cc1ccc(Oc2ccc(-c3ccn(CC4CC4)c(=O)c3C#N)cc2F)c(C)n1 [Compound 3, 1-Cyclopropylmethyl-4-[4-(2,6-dimethyl-pyridin-3-yloxy)-3-fluoro-phenyl]-2-oxo-1,2-dihydro-pyridine-3-carbonitrile]	457	152.7 °C	
CCCCn1ccc(-c2ccc(Oc3ccnc(C)c3)cc2F)c(C#N)c1=O [Compound 4, 1-Butyl-4-[2-fluoro-4-(2-methyl-pyridin-4-yloxy)-phenyl]-2-oxo-1,2-dihydro-pyridine-3-carbonitrile]		127.1 °C	6.41
CCCCn1ccc(-c2ccc(Oc3ccnc(C)c3)c(F)c2)c(C#N)c1=O [Compound 5, 1-Butyl-4-[3-fluoro-4-(2-methyl-pyridin-4-yloxy)-phenyl]-2-oxo-1,2-dihydro-pyridine-3-carbonitrile]	437	125.2 °C and 125.4 °C	
CCCCn1ccc(-c2ccc(Oc3cc(C)nc(C)c3)cc2F)c(C#N)c1=O [Compound 6, 1-Butyl-4-[4-(2,6-dimethyl-pyridin-4-yloxy)-2-fluoro-phenyl]-2-oxo-1,2-dihydro-pyridine-3-carbonitrile]	437	169.9 °C	
CCCCn1ccc(-c2ccc(Oc3cc(C)nc(C)c3)c(F)c2)c(C#N)c1=O [Compound 7, 1-Butyl-4-[4-(2,6-dimethyl-pyridin-4-yloxy)-3-fluoro-phenyl]-2-oxo-1,2-dihydro-pyridine-3-carbonitrile]	347		
Cc1cc(Oc2ccc(-c3ccn(CC4CC4)c(=O)c3C#N)c(F)c2)cc(C)n1 [Compound 8, 1-Cyclopropylmethyl-4-[4-(2,6-dimethyl-pyridin-4-yloxy)-2-fluoro-phenyl]-2-oxo-1,2-dihydro-pyridine-3-carbonitrile]	794		
Cc1cc(Oc2ccc(-c3ccn(CC4CC4)c(=O)c3C#N)cc2F)cc(C)n1 [Compound 9, 1-Cyclopropylmethyl-4-[4-(2,6-dimethyl-pyridin-4-yloxy)-3-fluoro-phenyl]-2-oxo-1,2-dihydro-pyridine-3-carbonitrile]	708	201.2 °C	
Cc1nccc(Oc2ccc(-c3ccn(CC4CC4)c(=O)c3C#N)c(F)c2)c1C [Compound 10, 1-Cyclopropylmethyl-4-[4-(2,3-dimethyl-pyridin-4-yloxy)-2-fluoro-phenyl]-2-oxo-1,2-dihydro-pyridine-3-carbonitrile]	372		
Cc1nccc(Oc2ccc(-c3ccn(CC4CC4)c(=O)c3C#N)cc2F)c1C [Compound 11, 1-Cyclopropylmethyl-4-[4-(2,3-dimethyl-pyridin-4-yloxy)-3-fluoro-phenyl]-2-oxo-1,2-dihydro-pyridine-3-carbonitrile]	676		
CCCCn1ccc(-c2ccc(Oc3cccnc3C)c(F)c2)c(C#N)c1=O [Compound 12]	537	104.8 °C	
Cc1cc(Oc2ccc(-c3ccn(CCC4CC4)c(=O)c3C#N)c(F)c2)ccn1 [Compound 13]	417	110.7 °C	

The next lines start with the values.

EC50 (human mGluR2 receptor) [nM]	melting point	GTPgS - hR2 PAM pEC50 (human mGluR2 receptor)	SMILES
380	145.8 °C		Cc1ncccc1Oc1ccc(-c2ccn(CCC3CC3)c(=O)c2C#N)cc1F [Compound 14]
708	172.2 °C		CCCCn1ccc(-c2cc(F)c(Oc3ccnc(C)c3)c(F)c2)c(C#N)c1=O [Compound 15]
437	136.7 °C		CCCCn1ccc(-c2ccc(Oc3cccnc3C)cc2)c(C#N)c1=O [Compound 16]
1000			CCCCn1ccc(-c2ccc(Oc3cc(C)ccn3)cc2)c(C#N)c1=O [Compound 17]
	121 °C		CCCCn1ccc(-c2ccc(Oc3ccnc(C)c3)cc2)c(C#N)c1=O [Compound 18, 3-cyano-1-butyl-4-[4-(2-methyl-pyridin-4-yloxy)-phenyl]-pyridine-2(1H)-one]
158			N#Cc1c(-c2ccc(Oc3ccnc(Cl)c3)cc2)ccn(CC2CC2)c1=O [Compound 19]
631			CCCCn1ccc(-c2ccc(Oc3ccncc3Cl)cc2)c(C#N)c1=O [Compound 20]
